We go through 44 compounds from ChEMBL document CHEMBL1201862, “PubChem BioAssay data set” (2004).

A word on the EC50: it is the concentration that produces a half-maximal response. The term AC50 denotes the midpoint of the concentration-response curve, whichever way the signal moves.

In data set [1] the target is T1, Heat shock factor protein 1 (Mus musculus, UniProt P38532).
T1 sequence (P38532 whole entry): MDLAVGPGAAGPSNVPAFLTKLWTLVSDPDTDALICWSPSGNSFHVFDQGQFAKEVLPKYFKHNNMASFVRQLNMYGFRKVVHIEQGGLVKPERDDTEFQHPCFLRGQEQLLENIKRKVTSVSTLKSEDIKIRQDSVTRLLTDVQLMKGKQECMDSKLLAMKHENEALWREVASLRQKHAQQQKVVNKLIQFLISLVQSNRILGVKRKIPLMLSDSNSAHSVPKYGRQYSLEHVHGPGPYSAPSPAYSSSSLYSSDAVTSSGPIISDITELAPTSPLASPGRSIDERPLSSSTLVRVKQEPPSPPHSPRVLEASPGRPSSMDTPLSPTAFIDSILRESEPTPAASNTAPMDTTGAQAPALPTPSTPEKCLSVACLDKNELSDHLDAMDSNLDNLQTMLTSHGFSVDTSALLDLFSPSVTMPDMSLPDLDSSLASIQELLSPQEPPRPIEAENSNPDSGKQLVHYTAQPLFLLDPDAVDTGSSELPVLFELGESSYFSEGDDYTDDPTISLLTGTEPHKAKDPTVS
The data set is described as follows: inhibition of MG132-induced HSE-luciferase signal, confirmation, cell-based, NIH3T3, luminescence, dose retest (AID 2382).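 Also: NIH3T3 fibroblasts with HSF1-driven luciferase reporter stressed by proteasome inhibitor MG132; luminescence from HSF1-driven luciferase expression after 8 hours of MG132 stress.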 It is filed as functional.

A further data set has as its target T2, Streptokinase A (Streptococcus pyogenes serotype M1, UniProt P10520).
T2 sequence (P10520 whole entry): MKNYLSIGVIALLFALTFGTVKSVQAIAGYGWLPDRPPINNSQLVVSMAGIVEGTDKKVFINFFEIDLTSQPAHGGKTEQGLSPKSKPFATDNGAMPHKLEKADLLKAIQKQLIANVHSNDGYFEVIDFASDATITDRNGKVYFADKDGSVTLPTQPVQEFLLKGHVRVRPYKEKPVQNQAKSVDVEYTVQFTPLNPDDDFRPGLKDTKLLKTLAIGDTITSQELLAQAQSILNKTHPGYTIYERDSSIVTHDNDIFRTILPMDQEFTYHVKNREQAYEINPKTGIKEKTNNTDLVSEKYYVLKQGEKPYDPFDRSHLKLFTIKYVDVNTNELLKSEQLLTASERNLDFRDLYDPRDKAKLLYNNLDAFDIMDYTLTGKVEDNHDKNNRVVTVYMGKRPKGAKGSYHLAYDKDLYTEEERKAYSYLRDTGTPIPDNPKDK
Kind of data set: S. pyogenes streptokinase expression inhibitors, potency, dose response, plasminogen activation absorbance, OD405 (AID 1914).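 Also: secreted streptokinase activity via plasminogen activation per viability signal from cell pellet.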 Format: functional, Streptococcus pyogenes M1 GAS.

The test system of the next data set is Streptococcus. The data set is described as follows: Group A Streptococcus viability loss, dose response, counter-screen for streptokinase expression inhibitor project, luminescence, BacTiterGlo (AID 1915).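 Also: potency for reduction of bacterial viability or growth.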 It is filed as functional, organism-based. A general note: A counterscreen serves to expose hits that act by an unwanted route or on another target.
The target in another data set is Cytochrome P450 2D6 (Homo sapiens, UniProt P10635).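 Also: CYP2D6 member of a cytochrome P450 panel assay.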
The next data set has as its target Cytochrome P450 2C9 (Homo sapiens, UniProt P11712).
In another data set the target is T3, Cytochrome P450 1A2 (Homo sapiens, UniProt P05177).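 Also: PubChem cytochrome P450 panel assay, CYP1A2 panel member.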
T3 sequence (P05177 whole entry): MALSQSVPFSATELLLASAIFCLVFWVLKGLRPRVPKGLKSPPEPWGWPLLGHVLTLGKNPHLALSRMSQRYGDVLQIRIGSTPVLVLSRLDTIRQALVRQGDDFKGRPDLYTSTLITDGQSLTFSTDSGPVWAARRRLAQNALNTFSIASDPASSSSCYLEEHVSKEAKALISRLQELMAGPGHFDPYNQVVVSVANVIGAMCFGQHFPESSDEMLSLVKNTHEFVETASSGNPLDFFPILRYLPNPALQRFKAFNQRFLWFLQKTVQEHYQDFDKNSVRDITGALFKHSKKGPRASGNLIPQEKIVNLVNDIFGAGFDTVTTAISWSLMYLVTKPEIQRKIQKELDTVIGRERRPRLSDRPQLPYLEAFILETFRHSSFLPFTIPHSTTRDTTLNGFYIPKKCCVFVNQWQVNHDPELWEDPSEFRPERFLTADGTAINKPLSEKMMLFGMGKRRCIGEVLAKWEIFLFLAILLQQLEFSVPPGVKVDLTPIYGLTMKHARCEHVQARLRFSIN

Data set [2] concerns Streptococcus sp. 'group A'. The data set is described as follows: growth inhibition of control SK(-) GAS strain, dose response, counter-screen for streptokinase expression inhibitor project, luminescence, kanamycin, BacTiterGlo, confirmation (AID 1900). It is filed as functional, organism-based.
A further data set relates to INS1. The data set is described as follows: beta cell apoptosis inhibitors, cytokine rescue, dose response, luminescence, retest (AID 449756).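 Also: cell death triggered by IL-1 beta plus TNF-alpha plus IFN-gamma mixture; protective hits raise ATP signal compared with cytokine alone wells.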 It is filed as functional, cell-based. The note with it: Rattus norvegicus.
A short description of data set [3]: Luminescence Cell-Based Dose Retest to Confirm Inhibitors of Cancer Stem Cells. [Related pubchem assays (depositor defined):AID2717, AID2721]. Format: functional. The note with it: Homo sapiens.
The target of a further data set is Cytochrome P450 2C19 (Homo sapiens, UniProt P33261). The data set is described as follows: Cytochrome panel assay with activity outcomes. Panel member name: p450-cyp2c19 Compounds with AC50 equal or less than 10 uM are considered active. It is filed as functional.
Data set [4] is described as follows: control 3'UTR Renilla luciferase suppression, dose response, counter-screen for Shn3 inhibitor project, cell-based, Clone20-Shn3RL, cherry-picked (AID 624133). Format: functional.
Data set [5] is described as follows: Shn3 3'UTR reporter inhibitors, dose response, cell-based, Clone20 osteoblasts, firefly luciferase, cherry-picked (AID 624132).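 Also: firefly luciferase luminescence from reporter carrying the Shn3 3'UTR in osteoblasts.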 Format: functional.

The source made the active and inactive calls.

Chain of Cytochrome P450 2D6 (P10635 whole entry): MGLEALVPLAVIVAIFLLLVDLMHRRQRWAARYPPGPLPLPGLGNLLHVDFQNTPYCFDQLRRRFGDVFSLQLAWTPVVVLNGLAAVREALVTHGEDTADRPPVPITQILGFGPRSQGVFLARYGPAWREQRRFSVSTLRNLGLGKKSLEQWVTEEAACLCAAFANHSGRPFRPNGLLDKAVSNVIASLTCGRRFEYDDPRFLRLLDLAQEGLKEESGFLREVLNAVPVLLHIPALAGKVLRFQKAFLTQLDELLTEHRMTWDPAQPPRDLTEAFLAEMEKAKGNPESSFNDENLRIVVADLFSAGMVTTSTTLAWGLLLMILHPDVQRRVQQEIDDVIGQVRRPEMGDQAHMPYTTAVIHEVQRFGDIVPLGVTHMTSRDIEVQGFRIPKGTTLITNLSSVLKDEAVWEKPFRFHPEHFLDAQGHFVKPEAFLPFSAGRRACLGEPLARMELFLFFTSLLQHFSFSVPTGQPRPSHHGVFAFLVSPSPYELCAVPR
Chain of Cytochrome P450 2C19 (P33261 whole entry): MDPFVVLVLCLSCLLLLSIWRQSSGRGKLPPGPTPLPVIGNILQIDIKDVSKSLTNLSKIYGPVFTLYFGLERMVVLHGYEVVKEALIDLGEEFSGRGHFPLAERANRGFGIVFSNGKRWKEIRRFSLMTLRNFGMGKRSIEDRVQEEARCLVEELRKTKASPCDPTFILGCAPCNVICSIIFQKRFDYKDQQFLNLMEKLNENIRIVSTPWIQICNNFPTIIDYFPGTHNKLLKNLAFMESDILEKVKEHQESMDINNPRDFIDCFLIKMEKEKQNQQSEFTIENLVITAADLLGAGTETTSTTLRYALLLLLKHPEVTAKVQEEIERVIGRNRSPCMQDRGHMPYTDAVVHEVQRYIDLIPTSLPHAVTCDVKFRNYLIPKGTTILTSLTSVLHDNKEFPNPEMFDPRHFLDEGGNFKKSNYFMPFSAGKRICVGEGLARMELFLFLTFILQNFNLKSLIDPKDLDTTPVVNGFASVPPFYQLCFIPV
Chain of Cytochrome P450 2C9 (P11712 whole entry): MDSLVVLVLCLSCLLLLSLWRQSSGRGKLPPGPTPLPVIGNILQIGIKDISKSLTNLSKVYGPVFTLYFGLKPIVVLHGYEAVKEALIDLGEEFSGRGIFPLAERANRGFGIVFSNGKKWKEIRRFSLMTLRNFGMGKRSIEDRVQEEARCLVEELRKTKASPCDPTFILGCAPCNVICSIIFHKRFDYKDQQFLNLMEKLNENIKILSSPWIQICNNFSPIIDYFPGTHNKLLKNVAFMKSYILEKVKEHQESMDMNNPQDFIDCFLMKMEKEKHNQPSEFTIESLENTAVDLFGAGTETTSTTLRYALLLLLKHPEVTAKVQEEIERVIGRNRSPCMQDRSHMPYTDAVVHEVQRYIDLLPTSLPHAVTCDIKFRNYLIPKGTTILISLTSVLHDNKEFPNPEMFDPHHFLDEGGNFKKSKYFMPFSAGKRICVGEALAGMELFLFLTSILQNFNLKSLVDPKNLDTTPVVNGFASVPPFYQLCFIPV

For `CC(=O)c1ccc(NC(=O)C2CCN(S(=O)(=O)c3cccc4cccnc34)CC2)cc1`, the EC50 in data set [1] is recorded as > 195 µM (not active).
With `COc1ccccc1C(=O)NC(=S)Nc1ccc(NC(=O)c2ccco2)cc1`, the EC50 on Streptokinase A is > 150 µM (not active); in the data set on Streptococcus, 114 µM (inconclusive).
For `Cc1ccc(S(=O)(=O)c2cc3ccccc3o/c2=N\c2ccc3c(c2)OCO3)cc1`, the AC50 at Cytochrome P450 2D6 was 7.94 µM (inconclusive); on Cytochrome P450 2C9 it was 3.55 µM (inconclusive); at Cytochrome P450 1A2, 2.82 µM (inconclusive).
With `CCN(c1ccccc1)S(=O)(=O)c1ccc(Cl)c(NC(=O)CSc2nnc(C)s2)c1`, in [1], the EC50 is > 195 µM (not active).
As for `Cc1cccc(CCNC(=O)CC2C(=O)NCCN2Cc2ccccc2C)n1` (stereo not given), the EC50 (in data set [2]; on Streptokinase A; in the data set on Streptococcus) was > 150 µM (not active) throughout.
Take `COc1ccc2c(C(=O)NCc3ccc4c(c3)OCO4)c(-c3ccc(S(C)(=O)=O)cc3)sc2c1`: in the data set with INS1, the AC50 was 6.76 µM (active).
Take `C/C(=N\O)C1CCCCC1`: the EC50 in data set [1] is listed as > 195 µM (not active).
Regarding `COc1cccc(/C=C/C(=C2/C(=O)N(c3ccccc3)N=C2C)c2ccc(Br)cc2)c1OC`, the EC50 (in data set [2]; on Streptokinase A; in the data set on Streptococcus) was > 150 µM (not active) throughout. The AC50 in data set [3] is > 195 µM (inactive).
For `CC1CCOC2(O1)C(=O)N(CN1CCN(c3ccccc3F)CC1)c1ccccc12` (stereo not given), the AC50 at Cytochrome P450 2D6 is 25.1 µM (inconclusive); at Cytochrome P450 2C19 (read-out: AC50), 11.2 µM (inconclusive); at Cytochrome P450 1A2, 2 µM (inconclusive).
Consider `COC(=O)c1ccccc1NC(=O)CSc1nnc(C(CO)NC(=O)c2ccccc2)n1C` (stereo not given), for which the EC50 in data set [1] was > 195 µM (not active).
On to `O=C(CCNS(=O)(=O)c1cccc2nsnc12)NCc1cccs1`, for which the EC50 in data set [1] is recorded as > 195 µM (not active).
Regarding `COc1ccccc1-c1cncnc1NCc1cnc(C)cn1`, the half-maximal activity concentration (AC50) at Cytochrome P450 2D6 was 39.8 µM (inconclusive); at Cytochrome P450 2C19 (read-out: AC50) it was 31.6 µM (inconclusive); at Cytochrome P450 1A2, 20 µM (inconclusive).
As to `CCOC(=O)c1c(C)nc2c(c1-c1ccc(OC)cc1)C(=O)CC(C)(C)C2`, the AC50 on Cytochrome P450 1A2 was 14.1 µM (inconclusive).
Consider `CCc1ccc(NC(=O)C2C3CCC(O3)C2C(=O)O)cc1` (stereo not given), for which, in [1], the EC50 was 67 µM (active).
Consider `C(#Cc1ccccc1)CN1CCN(c2ccccn2)CC1`, for which the EC50 in data set [1] was > 195 µM (not active).
Take `O=S(=O)(c1ccccc1)N1CCN=C1SCc1c(F)cccc1Cl`: the figures for the EC50 at Streptokinase A and in the data set on Streptococcus were 18.4 µM (active) and > 150 µM (not active), respectively.
Turning to `NC(=O)C1CCCN(C(=O)c2ccc3oc(Cc4ccc(Cl)cc4)nc3c2)C1` (stereo not given), the concentration giving a half-maximal response (EC50) in [1] was > 195 µM (not active).
With `COc1ccc(C2=NOC(C(=O)NCCN3CCOCC3)C2)cc1` (stereo not given), on Cytochrome P450 1A2, the AC50 is 31.6 µM (inconclusive).
Turning to `COc1ccc(N(C)S(=O)(=O)c2cccc(C(=O)Nc3nc(C)c(C(C)=O)s3)c2)cc1`, the AC50 with INS1 is 28.3 µM (active).
For `N[C@H](Cc1ccccc1)c1nnn[nH]1`, the AC50 at Cytochrome P450 1A2 was 10 µM (inconclusive).
Regarding `CCOC(=O)C1=C(COc2ccc(F)cc2Cl)NC(=O)NC1c1cc(C)ccc1C` (stereo not given), the half-maximal activity concentration (AC50) on Cytochrome P450 1A2 was 17.8 µM (inconclusive).
`Cc1ccc(OP(=O)(Nc2cccc(C)c2)Oc2ccc(C)cc2)cc1`: the figures for the EC50 (in [2]; on Streptokinase A; with Streptococcus) were 13 µM (active), 5.1 µM (active) and 28.9 µM (active), respectively.
Take `CCOC(=O)Cc1csc(SCC(=O)c2c(N)n(CC(C)C)c(=O)n(C)c2=O)n1`: the concentration at half-maximal activity (AC50) in data set [4] is 8.62 µM (active); in [5] it was 2.35 µM (active).
For `COc1ccc(OC)c(C2N(c3cc(C)on3)C(=O)C3CCCN32)c1` (stereo not given), the values for the AC50 result on Cytochrome P450 2C19 and at Cytochrome P450 1A2 were “inconclusive” and 25.1 µM (inconclusive), respectively.
Take `COc1ccc(C)cc1NC(=O)NC1CCCc2ccccc21` (stereo not given): the EC50 (in data set [2]; at Streptokinase A; with Streptococcus) was > 150 µM (not active) in each case.
For `CCNc1ncc2nc(-c3ccc(F)cc3)c(=O)n(CCOC)c2n1`, the AC50 on Cytochrome P450 2D6 was 3.98 µM (inconclusive); on Cytochrome P450 1A2, 2 µM (inconclusive).
Consider `COc1cc(C(=O)N2CCSCC2)ccc1OC1CCN(C(C)=O)CC1`, for which the half-maximal effective concentration (EC50) in [1] was > 195 µM (not active).
Turning to `O=C(c1ccco1)N1CCC2(CCN(Cc3ccncc3)CC2)CC1`, the AC50 was 10 µM (inconclusive) at Cytochrome P450 2D6 and 20 µM (inconclusive) on Cytochrome P450 1A2.
On to `CCn1c(C(C#N)/C(=N\S(=O)(=O)c2cccs2)c2ccccc2)nc2ccccc21` (stereo not given), for which, in data set [1], the EC50 is reported as > 195 µM (not active).
For `CCOc1ccc(C(Nc2ccc(C)cc2)P2(=O)OCC(C)(C)CO2)cc1` (stereo not given), the AC50 on Cytochrome P450 2C9 was 0.02 µM (inconclusive); at Cytochrome P450 1A2, 39.8 µM (inconclusive).
In the case of `CCN(CC)CCOc1ccc2nc(N(C)C)sc2c1`, the AC50 on Cytochrome P450 2D6 and at Cytochrome P450 1A2 was 15.8 µM (inconclusive) in each case.
`NC1(C(=O)O)CCC1` [1-AMINOCYCLOBUTANE CARBOXYLIC ACID]: the half-maximal activity concentration (AC50) on Cytochrome P450 1A2 was 39.8 µM (inconclusive).
For the compound `COc1ccc(C2=NN(S(C)(=O)=O)C(c3cccs3)C2)cc1OC` (stereo not given), the EC50 in [1] was > 195 µM (not active).
For `O=C(C(Sc1ccccc1)c1ccccc1)N1CCN(c2ccccc2F)CC1` (stereo not given), the AC50 in the data set with INS1 was > 120 µM (inactive).
For the compound `COc1cccc(C(=O)Nc2ccc(NC(=O)C3CC=CCC3C(=O)O)cc2)c1` (stereo not given), the EC50 in data set [1] is listed as > 195 µM (not active).
As to `CC1(C)NC(=O)N(CC(O)CN(c2ccccc2)S(=O)(=O)c2ccc([N+](=O)[O-])cc2)C1=O` (stereo not given), in data set [1], the EC50 is reported as > 195 µM (not active).
As to `CC(=O)N1c2ccc(S(=O)(=O)N3CCC(C(=O)N4CCN(c5ccccc5F)CC4)CC3)cc2CC1C` (stereo not given), the AC50 was 2.42 µM (active) in data set [4] and 5.41 µM (active) in data set [5].
Take `COc1ccc(OC)c(/N=C2\SCCCN2C(=O)c2ccc(N3C(=O)CCC3=O)cc2)c1`: in data set [1], the EC50 is on record as > 195 µM (not active).
With `O=C(Nc1ccccc1N1CCCC1)c1cccnc1Cl`, in [1], the 50% effective concentration (EC50) is > 195 µM (not active).
On the same count and under the same terms, under `O=C(CC(Nc1ccc(Cl)cc1Cl)C(=O)O)c1ccccc1` (stereo not given) stands < 0.16 µM (active).
As for `COc1ccc(CN2C(=O)c3ccccc3C(/C=N/OCc3ccc(Cl)cc3)C2=O)cc1` (stereo not given), the EC50 in data set [2] was 1.44 µM (active); on Streptokinase A, > 150 µM (not active); with Streptococcus it was 8.28 µM (active).
With `Nc1nc2n(c1C(=O)c1ccccc1)CCC2`, the EC50 in data set [1] is 78 µM (active).
For `CCc1ccccc1N(CC(=O)N1CCCC1)S(C)(=O)=O`, the EC50 in data set [1] is reported as > 195 µM (not active).
In the case of `C/C(CC(=O)Nc1ccccc1C(F)(F)F)=N\NC(=O)c1cnccn1`, the EC50 in data set [1] is on record as > 195 µM (not active).
